Test results: paper PMC7034089, “Synthesis of novel, DNA binding heterocyclic dehydroabietylamine derivatives as potential antiproliferative and apoptosis-inducing agents” (Drug Delivery, 2020)

Assays:
[1] = system: Hela (cervix) cells; assay: MTT antiproliferative assay, Hela cells; assay type: cell-based; conditions: Homo sapiens, 36 h incubation, read-out: IC50 ± SE, Hela
Description: (§1) Compounds L^1−L^10 were evaluated against human cancer cell lines Hela, HepG2, MCF-7, A549, and the normal cell HUVEC with the antiproliferative activities in vitro by MTT assay, and results are summarized as IC50 values in Table 3.
(§2) Hela, HepG2, MCF-7, A549, and HUVEC cells were used in the antiproliferative activity assay. Cancer cells were seeded in 96-well plates with a density of 10^4 cells per well, after 12 hours of incubation at 5% CO2 and 37 °C, the culture media was removed and cells were incubated with L^1−L^10 dissolved in DMEM at different concentrations (each concentration repeated 3 times) for 36 h at 5% CO2 and 37 °C. Subsequently, removed the culture media and the new culture medium containing MTT (1 mg/mL) was added, followed by incubating for 4 h to allow the formation of formazan dye (Xia et al., [2015]; Zhao et al., [2018]). After removing the medium, 200 μL DMSO was added to each well to dissolve the formazan crystals. Absorbance was measured at 595 nm in a microplate photometer. Cell viability values were determined (at least three times) according to the following formulae: cell viability (%) = the absorbance of experimental group/the absorbance of blank control group ×100%.

[2] = system: HepG2 (liver) cells; assay: MTT antiproliferative assay, HepG2 cells; assay type: cell-based; conditions: Homo sapiens, 36 h incubation, read-out: IC50 ± SE, HepG2
Description: as §2

[3] = system: MCF-7 (breast) cells; assay: MTT antiproliferative assay, MCF-7 cells; assay type: cell-based; conditions: Homo sapiens, MCF7, 36 h incubation, read-out: IC50 ± SE, MCF-7
Description: as §1, §2

[4] = system: A549 (lung) cells; assay: MTT antiproliferative assay, A549 cells; assay type: cell-based; conditions: Homo sapiens, 36 h incubation, read-out: IC50 ± SE, A549
Description: as §1, §2

[5] = system: HUVEC (umbilical vein) cells; assay: MTT cytotoxicity assay, normal HUVEC cells; assay type: cell-based; conditions: Homo sapiens, 36 h, 36 h incubation, read-out: IC50 ± SE, HUVEC (toxicity, normal cell)
Description: as §1, §2

[6] = pKb; assay type: physicochemical

IC50 [1]	IC50 [2]	IC50 [3]	IC50 [4]	melting point	pKb [6]	Structure (SMILES)	IC50 [5]
9.02 ± 0.25 µM	0.66 ± 0.02 µM	5.33 ± 0.16 µM	2.11 ± 0.06 µM	–	–	CC(C)c1ccc2c(c1)CCC1C(C)(CN=Cc3cccs3)CCCC21C (stereo not shown) [L^1, 2-thiophene-dehydroabietylamine-Schiff-base]	5.98 µM
43.5 ± 1.34 µM	24 ± 1.33 µM	11.8 ± 0.54 µM	83.6 ± 15.7 µM	159.8 to 162.3 °C	–	CC(C)c1ccc2c(c1)CCC1C(C)(CNC(=O)c3cnccn3)CCCC21C (stereo not shown) [L^7, 2-pyrazine-acyl-dehydroabietylamine]	66.8 ± 2.6 µM
> 100 µM	53.1 ± 1.95 µM	8.27 ± 0.21 µM	> 100 µM	169.4 to 171.7 °C	–	Cc1ccc(C(=O)NCC2(C)CCCC3(C)c4ccc(C(C)C)cc4CCC23)s1 (stereo not shown) [L^5, 5-methyl-2-thiophene-acyl-dehydroabietylamine]	> 100 µM
2.02 ± 0.02 µM	2.56 ± 0.04 µM	19.4 ± 0.39 µM	5.02 ± 0.19 µM	–	–	CC(C)c1ccc2c(c1)CCC1C(C)(CN)CCCC21C (stereo not shown) [L^0, dehydroabietylamine]	1.27 ± 0.03 µM
52.5 ± 0.54 µM	44.9 ± 0.75 µM	6.66 ± 0.24 µM	> 100 µM	130.7 to 133.4 °C	–	Cc1cnc(C(=O)NCC2(C)CCCC3(C)c4ccc(C(C)C)cc4CCC23)cn1 (stereo not shown) [L^9, 5–methyl-2-pyrazine-acyl-dehydroabietylamine]	18.9 ± 1.72 µM
14.8 ± 0.22 µM	46 ± 1.13 µM	8.21 ± 0.65 µM	> 100 µM	–	–	CC(C)c1ccc2c(c1)CCC1C(C)(CNC(=O)c3cccs3)CCCC21C (stereo not shown) [L^4, 2–thiophene-acyl-dehydroabietylamine]	> 100 µM
59.52 ± 0.27 µM	28.78 ± 0.19 µM	14.5 ± 2.48 µM	> 100 µM	38.2 to 39.1 °C	–	Cc1ccsc1C=NCC1(C)CCCC2(C)c3ccc(C(C)C)cc3CCC12 (stereo not shown) [L^2, 3-methyl-2-thiophene-dehydroabietylamine-Schiff-base]	34 ± 1.57 µM
3.55 ± 0.17 µM	1.2 ± 0.04 µM	14 ± 1.03 µM	3.35 ± 0.69 µM	–	5.80	COc1cccc2c1C(=O)c1c(O)c3c(c(O)c1C2=O)C[C@@](O)(C(=O)CO)C[C@@H]3O[C@H]1C[C@H](N)[C@H](O)[C@H](C)O1 [DOX, Doxorubicin, reference compound]	4.4 ± 0.55 µM
20.2 ± 0.89 µM	17.06 ± 0.07 µM	8.81 ± 0.54 µM	36 ± 2.18 µM	–	–	COc1cnc(C(=O)NCC2(C)CCCC3(C)c4ccc(C(C)C)cc4CCC23)cn1 (stereo not shown) [L^8, 5-methoxyl-2-pyrazine-acyl-dehydroabietylamine]	95.1 ± 0.97 µM
> 100 µM	51.4 ± 2 µM	55.6 ± 2.56 µM	94.4 ± 2.56 µM	170.7 to 173.2 °C	–	CC(C)c1ccc2c(c1)CCC1C(C)(CNC(=O)c3ccc(Br)s3)CCCC21C (stereo not shown) [L^6, 5-bromine-2-thiophene-acyl-dehydroabietylamine]	75.5 ± 12.4 µM
54.38 ± 0.38 µM	1.63 ± 0.39 µM	2.65 ± 0.07 µM	95.5 ± 2.48 µM	–	–	CC(C)c1ccc2c(c1)CCC1C(C)(CN=Cc3ccc(Br)s3)CCCC21C (stereo not shown) [L^3, 5-bromine-2-thiophene-dehydroabietylamine-Schiff-base]	16.6 ± 1.08 µM
> 100 µM	56.1 ± 6.11 µM	88.8 ± 3.46 µM	39.6 ± 1.74 µM	152.4 to 154.5 °C	–	CC(C)c1ccc2c(c1)CCC1C(C)(CNC(=O)c3cnc(Cl)cn3)CCCC21C (stereo not shown) [L^10, 5-chloro-2-pyrazine-acyl-dehydroabietylamine]	29.4 ± 2.35 µM
